Results as given in patent US8710233B2 (Gruenenthal GmbH, priority 2005, dated 2014).
Read-outs that look alike come from different tables or passages of the source.

What was measured:
Format in all cases: cell-based
vanilloid receptor (VR1) = biological target: T1, vanilloid receptor (VR1) (Homo sapiens, UniProt Q8NER1); experiment: FLIPR Ca2+ influx assay on CHO K1 cells transfected with the VR1 gene (pharmacological method II); conditions: for Ki: table 4, capsaicin, read-out: Ki (human) Cap.
T1 construct: expressed in transfected cells; host or cells: CHO K1 cells (ECACC), stably transfected
T1 sequence (Q8NER1 whole entry): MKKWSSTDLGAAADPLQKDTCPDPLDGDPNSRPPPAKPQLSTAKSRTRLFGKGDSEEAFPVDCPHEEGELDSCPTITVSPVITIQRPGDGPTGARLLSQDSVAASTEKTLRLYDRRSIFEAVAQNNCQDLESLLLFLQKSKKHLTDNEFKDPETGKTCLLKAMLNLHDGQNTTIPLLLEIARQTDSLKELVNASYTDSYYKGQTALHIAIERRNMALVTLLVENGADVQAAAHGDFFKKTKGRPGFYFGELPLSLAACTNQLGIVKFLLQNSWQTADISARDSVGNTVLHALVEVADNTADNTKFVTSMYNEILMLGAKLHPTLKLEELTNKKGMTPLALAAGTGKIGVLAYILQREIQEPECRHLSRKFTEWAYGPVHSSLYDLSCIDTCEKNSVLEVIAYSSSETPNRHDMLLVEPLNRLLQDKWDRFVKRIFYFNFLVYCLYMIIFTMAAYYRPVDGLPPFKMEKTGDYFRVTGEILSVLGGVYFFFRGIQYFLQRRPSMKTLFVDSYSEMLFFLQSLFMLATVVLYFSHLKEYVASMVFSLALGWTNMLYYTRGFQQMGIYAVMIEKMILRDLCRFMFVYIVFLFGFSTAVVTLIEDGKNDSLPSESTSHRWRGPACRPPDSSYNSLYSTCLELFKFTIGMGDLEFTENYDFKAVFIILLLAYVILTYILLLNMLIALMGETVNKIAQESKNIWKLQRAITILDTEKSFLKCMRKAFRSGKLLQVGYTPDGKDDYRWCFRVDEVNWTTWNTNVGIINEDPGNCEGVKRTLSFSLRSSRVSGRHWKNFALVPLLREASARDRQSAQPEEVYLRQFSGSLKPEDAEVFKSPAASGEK

[1] = biological target: T2, vanilloid receptor 1 (VR1/TRPV1) of the rat species (Rattus norvegicus, UniProt O35433); experiment: FLIPR Ca2+ influx assay on rat dorsal root ganglia cells (pharmacological method I); conditions: for Ki: table 4, capsaicin
T2 construct: The spinal column is removed from decapitated rats; from tissue; host or cells: primary cells dissociated from rat dorsal root ganglia
T2 sequence (O35433 whole entry): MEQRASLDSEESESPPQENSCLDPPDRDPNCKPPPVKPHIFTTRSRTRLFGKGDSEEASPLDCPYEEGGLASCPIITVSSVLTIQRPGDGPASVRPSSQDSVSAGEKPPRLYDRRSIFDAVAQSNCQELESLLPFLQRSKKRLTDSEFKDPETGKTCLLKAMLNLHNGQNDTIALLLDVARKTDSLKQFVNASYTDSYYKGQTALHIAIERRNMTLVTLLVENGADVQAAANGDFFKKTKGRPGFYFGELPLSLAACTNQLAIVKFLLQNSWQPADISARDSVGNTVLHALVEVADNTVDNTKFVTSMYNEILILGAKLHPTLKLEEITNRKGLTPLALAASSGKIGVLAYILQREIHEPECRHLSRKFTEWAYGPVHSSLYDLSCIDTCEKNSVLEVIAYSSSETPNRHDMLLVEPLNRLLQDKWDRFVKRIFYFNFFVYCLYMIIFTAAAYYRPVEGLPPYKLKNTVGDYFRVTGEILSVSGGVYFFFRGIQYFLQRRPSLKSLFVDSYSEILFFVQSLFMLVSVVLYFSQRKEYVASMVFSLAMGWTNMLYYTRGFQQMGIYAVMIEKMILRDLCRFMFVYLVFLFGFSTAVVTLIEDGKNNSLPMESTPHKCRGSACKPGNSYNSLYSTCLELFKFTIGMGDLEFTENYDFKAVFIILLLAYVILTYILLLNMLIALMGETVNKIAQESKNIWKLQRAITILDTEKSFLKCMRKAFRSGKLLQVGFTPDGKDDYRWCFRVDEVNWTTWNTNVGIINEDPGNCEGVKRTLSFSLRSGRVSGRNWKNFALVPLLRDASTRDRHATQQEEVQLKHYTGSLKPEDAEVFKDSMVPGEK
In short: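 Primary rat dorsal root ganglion cells loaded with 2 μM Fluo-4, Ca2+ influx read on FLIPR as peak fluorescence. Triplicates, at least 3 independent experiments.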

VR1/TRPV1 receptor = VR1/TRPV1 receptor (Homo sapiens, UniProt Q8NER1); experiment: IC50 (human) after pH stimulus; conditions: for IC50: table 4
Chain of VR1/TRPV1 receptor (Q8NER1 whole entry): as the sequence (Q8NER1 whole entry) above

[2] = @ 1 μM, ne = no effect, read-out: inhibition in percent, IC50 (human) after pH stimulus
[3] = read-out: inhibition in percent, IC50 (human) after pH stimulus

SMILES	Ki (vanilloid receptor (VR1)) [nM]	Ki ([1]; read-out: Ki (rat) Cap.) [nM]	IC50 (VR1/TRPV1 receptor) [nM]	also measured
CC(C(=O)NCc1ccc(C(F)(F)F)nc1N1CCN(c2ncccc2Cl)CC1)c1ccc(NS(C)(=O)=O)c(F)c1 (centres unmarked) [Example 193, N-{2-[4-(3-chloro-pyridin-2-yl)-piperazin-1-yl]-6-trifluoromethyl-pyridin-3-ylmethyl}-2-(3-fluoro-4-methylsulfonamido-phenyl)-propionamide]	2.1	3.2		inhibition at 1 µM (VR1/TRPV1 receptor; [2]): 69%
Cc1cc(C(C)C(=O)NCc2ccc(C(F)(F)F)nc2N2CCC(C(F)(F)F)CC2)ccc1NS(C)(=O)=O (centres unmarked) [Example 195, N-(4,6′-bis-trifluoromethyl-3,4,5,6-tetrahydro-2H-[1,2′]bipyridinyl-3′-ylmethyl)-2-(4-methylsulfonamido-3-methyl-phenyl)-propionamide]	1.1	0.4	61	
Cc1cc(C(C)C(=O)NCc2ccc(C(F)(F)F)nc2N2CCC(C)CC2)ccc1NS(C)(=O)=O (centres unmarked) [Example 196, 2-(4-methylsulfonamido-3-methyl-phenyl)-N-(4-methyl-6′-trifluoromethyl-3,4,5,6-tetrahydro-2H-[1,2′]bipyridinyl-3′-ylmethyl)-propionamide]	0.6	0.4		inhibition at 1 µM (VR1/TRPV1 receptor; [2]): 41%
CCC1CCN(c2nc(C(F)(F)F)ccc2CNC(=O)C(C)c2ccc(NS(C)(=O)=O)c(F)c2)CC1 (centres unmarked) [Example 197, N-(4-ethyl-6′-trifluoromethyl-3,4,5,6-tetrahydro-2H-[1,2′]bipyridinyl-3′-ylmethyl)-2-(3-fluoro-4-methylsulfonamido-phenyl)-propionamide]	1.5	0.4	97.3	
CC(C(=O)NCc1ccc(C(F)(F)F)nc1Oc1ccccc1)c1ccc(NS(C)(=O)=O)c(F)c1 (centres unmarked) [Example 198, 2-(3-fluoro-4-methylsulfonamido-phenyl)-N-(2-phenoxy-6-trifluoromethyl-pyridin-3-ylmethyl)-propionamide]	6.4			Ki ([1]; Ki (rat) Cap.): 0.9 nM; inhibition at 0.1 µM (VR1/TRPV1 receptor; [3]): 11%; inhibition at 1 µM (VR1/TRPV1 receptor; [2]): 31%
COCC1CCN(c2nc(C(F)(F)F)ccc2CNC(=O)C(C)c2ccc(NS(C)(=O)=O)c(F)c2)CC1 (centres unmarked) [Example 199, 2-(3-fluoro-4-methylsulfonamido-phenyl)-N-(4-methoxymethyl-6′-trifluoromethyl-3,4,5,6-tetrahydro-2H-[1,2′]bipyridinyl-3′-ylmethyl)-propionamide]	1.4	1.6	31	
CC(C(=O)NCc1ccc(C(F)(F)F)nc1N1CCC(c2ccc(F)cc2)CC1)c1ccc(NS(C)(=O)=O)c(F)c1 (centres unmarked) [Example 200, 2-(3-fluoro-4-methylsulfonamido-phenyl)-N-[4-(4-fluoro-phenyl)-6′-trifluoromethyl-3,4,5,6-tetrahydro-2H-[1,2′]bipyridinyl-3′-ylmethyl]-propionamide]	4.2	3.4	81	
CC(C(=O)NCc1ccc(C(F)(F)F)nc1N1CCN(c2ccccc2F)CC1)c1ccc(NS(C)(=O)=O)c(F)c1 (centres unmarked) [Example 201, 2-(3-fluoro-4-methylsulfonamido-phenyl)-N-{2-[4-(2-fluoro-phenyl)-piperazin-1-yl]-6-trifluoromethyl-pyridin-3-ylmethyl}-propionamide]	2.4	1.2	34	
CC(C(=O)NCc1ccc(C(F)(F)F)nc1OCc1ccccn1)c1ccc(NS(C)(=O)=O)c(F)c1 (centres unmarked) [Example 202, 2-(3-fluoro-4-methylsulfonamido-phenyl)-N-[2-(pyridin-2-ylmethoxy)-6-trifluoromethyl-pyridin-3-ylmethyl]-propionamide]	29.5			Ki ([1]; Ki (rat) Cap.): 24.8 nM; inhibition at 0.1 µM (VR1/TRPV1 receptor; [3]): 16%; inhibition at 1 µM (VR1/TRPV1 receptor; [2]): 30%
Cc1cc(C(C)C(=O)NCc2ccc(C(F)(F)F)nc2N2CCN(c3ccccc3)CC2)ccc1NS(C)(=O)=O (centres unmarked) [Example 203, 2-(4-methylsulfonamido-3-methyl-phenyl)-N-[2-(4-phenyl-piperazin-1-yl)-6-trifluoromethyl-pyridin-3-ylmethyl]-propionamide]	3	3.3		inhibition at 0.1 µM (VR1/TRPV1 receptor; [3]): 0%; inhibition at 1 µM (VR1/TRPV1 receptor; [2]): 24%
Cc1cc(C(C)C(=O)NCc2ccc(C(F)(F)F)nc2OCc2ccccc2)ccc1NS(C)(=O)=O (centres unmarked) [Example 204, N-(2-benzyloxy-6-trifluoromethyl-pyridin-3-ylmethyl)-2-(4-methylsulfonamido-3-methyl-phenyl)-propionamide]	4	1.6	148	
CC(C(=O)NCc1ccc(C(F)(F)F)nc1N(C)c1ccccc1)c1ccc(NS(C)(=O)=O)c(F)c1 (centres unmarked) [Example 205, 2-(3-fluoro-4-methylsulfonamido-phenyl)-N-[2-(methyl-phenyl-amino)-6-trifluoromethyl-pyridin-3-ylmethyl]-propionamide]	0.9	11.4	57.4	
CC(C(=O)NCc1ccc(C(F)(F)F)nc1OCc1ccc(C(F)(F)F)cc1)c1ccc(NS(C)(=O)=O)c(F)c1 (centres unmarked) [Example 206, 2-(3-fluoro-4-methylsulfonamido-phenyl)-N-[6-trifluoromethyl-2-(4-trifluoromethyl-benzyloxy)-pyridin-3-ylmethyl]-propionamide]	3.2		66.1	Ki ([1]; Ki (rat) Cap.): 0.7 nM
CC(C(=O)NCc1ccc(C(F)(F)Cl)nc1N1CCN(c2ccccc2)CC1)c1ccc(NS(C)(=O)=O)c(F)c1 (centres unmarked) [Example 207]	0.8	0.8	38.6	
CC(C)COc1nc(C(F)(F)Cl)ccc1CNC(=O)C(C)c1ccc(NS(C)(=O)=O)c(F)c1 (centres unmarked) [Example 208, N-[6-(chloro-difluoro-methyl)-2-isobutoxy-pyridin-3-ylmethyl]-2-(3-fluoro-4-methylsulfonamido-phenyl)-propionamide]	0.6	0.5	38.6	
CC(C(=O)NCc1ccc(C(F)(F)F)nc1N1CCC(C)(C)CC1)c1ccc(NS(C)(=O)=O)c(F)c1 (centres unmarked) [Example 210, N-(4,4-dimethyl-6′-trifluoromethyl-3,4,5,6-tetrahydro-2H-[1,2′]bipyridinyl-3′-ylmethyl)-2-(3-fluoro-4-methylsulfonamido-phenyl)-propionamide]	0.3	0.2	8	
CC(C(=O)NCc1ccc(C(F)(F)F)nc1OCc1cccnc1)c1ccc(NS(C)(=O)=O)c(F)c1 (centres unmarked) [Example 211, 2-(3-fluoro-4-methylsulfonamido-phenyl)-N-[2-(pyridin-3-ylmethoxy)-6-trifluoromethyl-pyridin-3-ylmethyl]-propionamide]	142	30.3	3440	
CC(C(=O)NCc1ccc(C(F)(F)F)nc1N1CCN(c2ncccc2C(F)(F)F)CC1)c1ccc(NS(C)(=O)=O)c(F)c1 (centres unmarked) [Example 212, 2-(3-fluoro-4-methylsulfonamido-phenyl)-N-{6-trifluoromethyl-2-[4-(3-trifluoromethyl-pyridin-2-yl)-piperazin-1-yl]-pyridin-3-ylmethyl}-propionamide]	4.2	3.6		inhibition at 0.1 µM (VR1/TRPV1 receptor; [3]): 11%; inhibition at 1 µM (VR1/TRPV1 receptor; [2]): 33%
CC(C(=O)NCc1ccc(C(F)(F)F)nc1N1CCN(c2ncccc2C(F)(F)F)CC1)c1ccc(NS(C)(=O)=O)c(F)c1 (centres unmarked) [Example 213, 2-(3-fluoro-4-methylsulfonamido-phenyl)-N-{6-trifluoromethyl-2-[4-(3-trifluoromethyl-pyridin-2-yl)-piperazin-1-yl]-pyridin-3-ylmethyl}-propionamide]	2.8	2		inhibition in percent, IC50 (human) after pH stimulus (VR1/TRPV1 receptor; @ 1 μM, ne = no effect): 37%; inhibition at 10 µM (VR1/TRPV1 receptor; @ 10 μM, read-out: inhibition in percent, IC50 (human) after pH stimulus): 49%
CC(C(=O)NCc1ccc(C(F)(F)F)nc1N1CCN(c2ccccn2)CC1)c1ccc(NS(C)(=O)=O)c(F)c1 (centres unmarked) [Example 214, 2-(3-fluoro-4-methylsulfonamido-phenyl)-N-[2-(4-pyridin-2-yl-piperazin-1-yl)-6-trifluoromethyl-pyridin-3-ylmethyl]-propionamide]	1.4	1.5	108	
CC(C(=O)NCc1ccc(C(F)(F)F)nc1)c1ccc(NS(C)(=O)=O)c(F)c1 (centres unmarked) [Example 215, 2-(3-fluoro-4-methylsulfonamido-phenyl)-N-(6-trifluoromethyl-pyridin-3-ylmethyl)-propionamide]				inhibition at 10 µM (vanilloid receptor (VR1); CHO-K1, @ 10 μM, read-out: inhibition in percent, Ki (human) Cap.): 37%; inhibition at 10 µM ([1]; @ 10 μM, read-out: inhibition in percent, Ki (rat) Cap.): 48%; inhibition at 25 µM (VR1/TRPV1 receptor; @ 25 μM, read-out: inhibition in percent, IC50 (human) after pH stimulus): 15%
CC(C(=O)NCc1ccc(C(F)(F)F)cc1N1CCC(C)(C)CC1)c1ccc(NS(C)(=O)=O)c(F)c1 (centres unmarked) [Example 218, N-[2-(4,4-dimethyl-piperidin-1-yl)-4-trifluoromethyl-benzyl]-2-(3-fluoro-4-methylsulfonamido-phenyl)-propionamide]	1.3	0.4	13.8	
Cc1ccc(N2CCN(c3nc(C(F)(F)F)ccc3CNC(=O)C(C)c3ccc(NS(C)(=O)=O)c(F)c3)CC2)cc1 (centres unmarked) [Example 219, 2-(3-fluoro-4-methylsulfonamido-phenyl)-N-[2-(4-p-tolyl-piperazin-1-yl)-6-trifluoromethyl-pyridin-3-ylmethyl]-propionamide]	3.3	2.4	38.3	
Cc1cccc(N2CCN(c3nc(C(F)(F)F)ccc3CNC(=O)C(C)c3ccc(NS(C)(=O)=O)c(F)c3)CC2)c1 (centres unmarked) [Example 220, 2-(3-fluoro-4-methylsulfonamido-phenyl)-N-[2-(4-m-tolyl-piperazin-1-yl)-6-trifluoromethyl-pyridin-3-ylmethyl]-propionamide]	3.4	2.4	39.2	
